Patent publication US9790210B2, “N-(monocyclic aryl),N'-pyrazolyl-urea, thiourea, guanidine and cyanoguanidine compounds as TrkA kinase inhibitors” (Array BioPharma Inc., priority 2012, dated 2017)

Experiments:
Assay in all cases: KinaseProfiler
Format in all cases: biochemical
Conditions in all cases: 10 μM, ATP near Km
MINK = target: T1, MINK (Homo sapiens, UniProt Q8N4C8)
T1 construct: purchased Millipore, Inc. (KinaseProfiler service)
How it was run: (§1)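 ATP was held near the Km for every individual kinase. Testing used 10 μM inhibitor in two replicate runs, and reported numbers are average POC.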

GRK6 = target: T2, GRK6 (Homo sapiens, UniProt P43250)
T2 construct: purchased Millipore, Inc. (KinaseProfiler service)
How it was run: as §1

TSSK2 = target: T3, TSSK2 (Homo sapiens, UniProt Q96PF2)
T3 construct: purchased Millipore, Inc. (KinaseProfiler service)
How it was run: as §1

IR = target: T4, IR (Homo sapiens, UniProt P06213)
T4 construct: purchased Millipore, Inc. (KinaseProfiler service)
How it was run: as §1

CDK1/cyclinB = target: T5, CDK1/cyclinB (Homo sapiens, UniProt P06493)
T5 construct: purchased Millipore (KinaseProfiler service)
How it was run: as §1

SGK3 = target: T6, SGK3 (Homo sapiens, UniProt Q96BR1)
T6 construct: purchased Millipore, Inc. (KinaseProfiler service)
How it was run: as §1

Ab12 = target: T7, Ab12 (Homo sapiens, UniProt P42684)
T7 construct: purchased Millipore (KinaseProfiler service)
T7 sequence (P42684 whole entry): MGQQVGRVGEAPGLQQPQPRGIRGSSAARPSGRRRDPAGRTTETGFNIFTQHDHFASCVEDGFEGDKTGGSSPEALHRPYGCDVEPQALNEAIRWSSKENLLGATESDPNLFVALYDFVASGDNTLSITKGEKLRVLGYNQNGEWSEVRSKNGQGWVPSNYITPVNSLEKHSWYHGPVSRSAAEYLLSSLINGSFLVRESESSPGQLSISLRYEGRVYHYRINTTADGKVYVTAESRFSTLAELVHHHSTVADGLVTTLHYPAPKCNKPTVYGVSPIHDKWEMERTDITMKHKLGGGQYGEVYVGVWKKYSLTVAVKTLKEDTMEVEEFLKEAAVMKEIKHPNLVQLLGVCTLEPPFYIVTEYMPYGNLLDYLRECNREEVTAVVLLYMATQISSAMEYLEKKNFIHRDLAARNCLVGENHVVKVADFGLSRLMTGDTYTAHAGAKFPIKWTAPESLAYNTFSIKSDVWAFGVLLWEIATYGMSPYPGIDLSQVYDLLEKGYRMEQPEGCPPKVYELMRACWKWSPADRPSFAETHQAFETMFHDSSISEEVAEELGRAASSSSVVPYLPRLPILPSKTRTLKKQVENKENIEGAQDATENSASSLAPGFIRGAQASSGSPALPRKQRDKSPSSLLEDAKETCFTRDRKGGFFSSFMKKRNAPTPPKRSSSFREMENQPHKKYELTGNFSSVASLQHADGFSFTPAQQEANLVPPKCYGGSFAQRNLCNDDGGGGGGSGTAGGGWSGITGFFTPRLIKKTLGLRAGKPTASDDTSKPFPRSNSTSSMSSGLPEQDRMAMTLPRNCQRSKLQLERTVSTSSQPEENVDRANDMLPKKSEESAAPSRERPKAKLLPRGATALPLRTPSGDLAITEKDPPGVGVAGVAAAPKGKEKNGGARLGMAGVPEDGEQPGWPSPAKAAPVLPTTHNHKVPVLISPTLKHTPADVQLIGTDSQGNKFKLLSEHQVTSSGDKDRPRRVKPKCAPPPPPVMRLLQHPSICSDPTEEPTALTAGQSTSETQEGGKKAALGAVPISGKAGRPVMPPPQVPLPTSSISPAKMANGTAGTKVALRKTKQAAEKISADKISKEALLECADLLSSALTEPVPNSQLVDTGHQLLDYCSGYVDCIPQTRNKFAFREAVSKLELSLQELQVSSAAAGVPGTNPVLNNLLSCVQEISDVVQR
How it was run: as §1

TAK1 = target: T8, TAK1 (Homo sapiens, UniProt O43318)
T8 construct: purchased Millipore, Inc. (KinaseProfiler service)
How it was run: as §1

CDK2/cyclinA = target: T9, CDK2/cyclinA (Homo sapiens, UniProt P24941)
T9 construct: purchased Millipore, Inc. (KinaseProfiler service)
How it was run: as §1

CK1gamma3 = target: T10, CK1gamma3 (Homo sapiens, UniProt Q9Y6M4)
T10 construct: purchased Millipore, Inc. (KinaseProfiler service)
How it was run: as §1

MAPKAP-K2 = target: T11, MAPKAP-K2 (Homo sapiens, UniProt P49137)
T11 construct: purchased Millipore, Inc. (KinaseProfiler service)
How it was run: as §1

MKNK2 = target: T12, MKNK2 (Homo sapiens, UniProt Q9HBH9)
T12 construct: purchased Millipore, Inc. (KinaseProfiler service)
T12 sequence (Q9HBH9 whole entry): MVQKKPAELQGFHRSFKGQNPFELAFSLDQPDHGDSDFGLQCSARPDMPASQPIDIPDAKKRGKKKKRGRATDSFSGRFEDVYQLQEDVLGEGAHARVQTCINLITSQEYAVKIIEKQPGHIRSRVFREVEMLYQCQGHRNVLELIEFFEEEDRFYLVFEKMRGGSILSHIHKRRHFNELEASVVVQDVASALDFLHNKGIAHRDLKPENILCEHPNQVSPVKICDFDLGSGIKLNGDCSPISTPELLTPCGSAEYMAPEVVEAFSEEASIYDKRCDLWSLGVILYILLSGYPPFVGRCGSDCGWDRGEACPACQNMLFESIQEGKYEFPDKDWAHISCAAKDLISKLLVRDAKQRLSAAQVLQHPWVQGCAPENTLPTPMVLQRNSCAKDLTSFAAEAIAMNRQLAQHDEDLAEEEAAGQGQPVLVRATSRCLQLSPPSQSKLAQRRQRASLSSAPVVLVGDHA
How it was run: as §1

HIPK3 = target: T13, HIPK3 (Homo sapiens, UniProt Q9H422)
T13 construct: purchased Millipore, Inc. (KinaseProfiler service)
How it was run: as §1

NLK = target: T14, NLK (Homo sapiens, UniProt Q9UBE8)
T14 construct: purchased Millipore, Inc. (KinaseProfiler service)
How it was run: as §1

mTOR = target: T15, mTOR (Homo sapiens, UniProt P42345)
T15 construct: purchased Millipore, Inc. (KinaseProfiler service)
How it was run: (§2)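 Duplicate determinations at 10 μM test compound; ATP approx. Km for each target. POC reported as replicate mean.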

ULK3 = target: T16, ULK3 (Homo sapiens, UniProt Q6PHR2)
T16 construct: purchased Millipore, Inc. (KinaseProfiler service)
How it was run: as §1

PKCzeta = target: T17, PKCzeta (Homo sapiens, UniProt Q05513)
T17 construct: purchased Millipore, Inc. (KinaseProfiler service)
How it was run: as §1

CK1_y = system: CK1_y
How it was run: as §1

p38beta = target: T18, p38beta (Homo sapiens, UniProt Q15759)
T18 construct: purchased Millipore, Inc. (KinaseProfiler service)
How it was run: as §1

Bmx = target: T19, Bmx (Homo sapiens, UniProt P51813)
T19 construct: purchased Millipore (KinaseProfiler service)
How it was run: as §1

IR Activated = target: T20, IR Activated (Homo sapiens, UniProt P06213)
T20 construct: purchased Millipore, Inc. (KinaseProfiler service)
How it was run: as §1

DAPK1 = target: T21, DAPK1 (Homo sapiens, UniProt P53355)
T21 construct: purchased Millipore, Inc. (KinaseProfiler service)
How it was run: as §1

CDK6/cyclinD3 = target: T22, CDK6/cyclinD3 (Homo sapiens, UniProt Q00534)
T22 construct: purchased Millipore, Inc. (KinaseProfiler service)
T22 sequence (Q00534 whole entry): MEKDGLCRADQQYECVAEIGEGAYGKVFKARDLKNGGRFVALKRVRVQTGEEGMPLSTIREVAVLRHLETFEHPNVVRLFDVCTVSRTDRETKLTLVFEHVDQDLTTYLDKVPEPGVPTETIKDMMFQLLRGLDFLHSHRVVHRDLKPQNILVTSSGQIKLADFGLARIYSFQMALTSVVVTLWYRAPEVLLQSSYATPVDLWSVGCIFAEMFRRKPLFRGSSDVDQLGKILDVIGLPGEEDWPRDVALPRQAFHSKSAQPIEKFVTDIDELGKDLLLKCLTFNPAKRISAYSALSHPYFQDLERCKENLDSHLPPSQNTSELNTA
T22 sequence (P30281 whole entry partner): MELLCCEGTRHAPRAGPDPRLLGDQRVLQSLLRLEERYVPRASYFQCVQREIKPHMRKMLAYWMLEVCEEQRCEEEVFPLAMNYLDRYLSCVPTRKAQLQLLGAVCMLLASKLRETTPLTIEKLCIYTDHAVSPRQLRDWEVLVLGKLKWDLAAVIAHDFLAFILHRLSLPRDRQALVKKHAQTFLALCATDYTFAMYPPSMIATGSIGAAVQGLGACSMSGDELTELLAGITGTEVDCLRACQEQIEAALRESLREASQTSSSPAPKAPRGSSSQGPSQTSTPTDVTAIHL
How it was run: as §1

PDGFRbeta = target: T23, PDGFRbeta (Homo sapiens, UniProt P09619)
T23 construct: purchased Millipore, Inc. (KinaseProfiler service)
How it was run: as §1

ErbB4 = target: T24, ErbB4 (Homo sapiens, UniProt Q15303)
T24 construct: purchased Millipore, Inc. (KinaseProfiler service)
How it was run: as §1

DAPK2 = target: T25, DAPK2 (Homo sapiens, UniProt Q9UIK4)
T25 construct: purchased Millipore, Inc. (KinaseProfiler service)
How it was run: as §1

MAP4K2 = target: T26, MAP4K2 (Homo sapiens, UniProt Q12851)
T26 construct: purchased Millipore, Inc. (KinaseProfiler service)
How it was run: as §1

ULK2 = target: T27, ULK2 (Homo sapiens, UniProt Q8IYT8)
T27 construct: purchased Millipore, Inc. (KinaseProfiler service)
How it was run: as §1

NEK11 = target: T28, NEK11 (Homo sapiens, UniProt Q8NG66)
T28 construct: purchased Millipore, Inc. (KinaseProfiler service)
How it was run: as §1

EGFR = target: T29, EGFR (Homo sapiens, UniProt P00533)
T29 construct: purchased Millipore, Inc. (KinaseProfiler service)
T29 sequence (P00533 25-1210): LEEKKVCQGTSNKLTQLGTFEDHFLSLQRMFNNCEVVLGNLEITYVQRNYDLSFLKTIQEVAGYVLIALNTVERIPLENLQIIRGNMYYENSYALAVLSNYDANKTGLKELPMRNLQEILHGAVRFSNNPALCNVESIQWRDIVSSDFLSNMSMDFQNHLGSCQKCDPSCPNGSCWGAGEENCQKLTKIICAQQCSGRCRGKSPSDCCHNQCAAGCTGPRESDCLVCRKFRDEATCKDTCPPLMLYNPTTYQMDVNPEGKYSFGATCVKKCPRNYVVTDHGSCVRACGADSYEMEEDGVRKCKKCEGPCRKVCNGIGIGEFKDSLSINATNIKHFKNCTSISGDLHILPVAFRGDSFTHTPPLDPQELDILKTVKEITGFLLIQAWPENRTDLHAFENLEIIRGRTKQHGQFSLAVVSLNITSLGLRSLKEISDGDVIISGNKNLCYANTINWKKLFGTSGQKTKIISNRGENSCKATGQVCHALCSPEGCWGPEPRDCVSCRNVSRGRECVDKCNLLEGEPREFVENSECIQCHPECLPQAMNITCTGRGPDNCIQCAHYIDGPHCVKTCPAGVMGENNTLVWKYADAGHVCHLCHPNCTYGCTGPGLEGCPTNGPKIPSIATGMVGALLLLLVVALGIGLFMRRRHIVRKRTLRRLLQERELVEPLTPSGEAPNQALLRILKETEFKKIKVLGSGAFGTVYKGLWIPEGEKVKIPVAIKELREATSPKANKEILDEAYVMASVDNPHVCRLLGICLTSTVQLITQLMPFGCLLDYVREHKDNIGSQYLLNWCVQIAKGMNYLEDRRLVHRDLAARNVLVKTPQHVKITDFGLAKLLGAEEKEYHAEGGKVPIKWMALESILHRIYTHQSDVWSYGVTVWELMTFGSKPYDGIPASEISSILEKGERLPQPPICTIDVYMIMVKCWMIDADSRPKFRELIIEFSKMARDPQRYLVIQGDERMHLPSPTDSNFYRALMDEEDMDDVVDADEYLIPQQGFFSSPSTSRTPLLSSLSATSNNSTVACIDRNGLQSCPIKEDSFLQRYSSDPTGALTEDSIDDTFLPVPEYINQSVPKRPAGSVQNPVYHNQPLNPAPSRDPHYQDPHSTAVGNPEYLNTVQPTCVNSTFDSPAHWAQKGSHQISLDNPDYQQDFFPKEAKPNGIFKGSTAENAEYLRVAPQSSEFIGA
How it was run: as §1

Syk = target: T30, Syk (Homo sapiens, UniProt P43405)
T30 construct: purchased Millipore, Inc. (KinaseProfiler service)
How it was run: as §2

ROCK-I = target: T31, ROCK-I (Homo sapiens, UniProt Q13464)
T31 construct: purchased Millipore, Inc. (KinaseProfiler service)
T31 sequence (Q13464 whole entry): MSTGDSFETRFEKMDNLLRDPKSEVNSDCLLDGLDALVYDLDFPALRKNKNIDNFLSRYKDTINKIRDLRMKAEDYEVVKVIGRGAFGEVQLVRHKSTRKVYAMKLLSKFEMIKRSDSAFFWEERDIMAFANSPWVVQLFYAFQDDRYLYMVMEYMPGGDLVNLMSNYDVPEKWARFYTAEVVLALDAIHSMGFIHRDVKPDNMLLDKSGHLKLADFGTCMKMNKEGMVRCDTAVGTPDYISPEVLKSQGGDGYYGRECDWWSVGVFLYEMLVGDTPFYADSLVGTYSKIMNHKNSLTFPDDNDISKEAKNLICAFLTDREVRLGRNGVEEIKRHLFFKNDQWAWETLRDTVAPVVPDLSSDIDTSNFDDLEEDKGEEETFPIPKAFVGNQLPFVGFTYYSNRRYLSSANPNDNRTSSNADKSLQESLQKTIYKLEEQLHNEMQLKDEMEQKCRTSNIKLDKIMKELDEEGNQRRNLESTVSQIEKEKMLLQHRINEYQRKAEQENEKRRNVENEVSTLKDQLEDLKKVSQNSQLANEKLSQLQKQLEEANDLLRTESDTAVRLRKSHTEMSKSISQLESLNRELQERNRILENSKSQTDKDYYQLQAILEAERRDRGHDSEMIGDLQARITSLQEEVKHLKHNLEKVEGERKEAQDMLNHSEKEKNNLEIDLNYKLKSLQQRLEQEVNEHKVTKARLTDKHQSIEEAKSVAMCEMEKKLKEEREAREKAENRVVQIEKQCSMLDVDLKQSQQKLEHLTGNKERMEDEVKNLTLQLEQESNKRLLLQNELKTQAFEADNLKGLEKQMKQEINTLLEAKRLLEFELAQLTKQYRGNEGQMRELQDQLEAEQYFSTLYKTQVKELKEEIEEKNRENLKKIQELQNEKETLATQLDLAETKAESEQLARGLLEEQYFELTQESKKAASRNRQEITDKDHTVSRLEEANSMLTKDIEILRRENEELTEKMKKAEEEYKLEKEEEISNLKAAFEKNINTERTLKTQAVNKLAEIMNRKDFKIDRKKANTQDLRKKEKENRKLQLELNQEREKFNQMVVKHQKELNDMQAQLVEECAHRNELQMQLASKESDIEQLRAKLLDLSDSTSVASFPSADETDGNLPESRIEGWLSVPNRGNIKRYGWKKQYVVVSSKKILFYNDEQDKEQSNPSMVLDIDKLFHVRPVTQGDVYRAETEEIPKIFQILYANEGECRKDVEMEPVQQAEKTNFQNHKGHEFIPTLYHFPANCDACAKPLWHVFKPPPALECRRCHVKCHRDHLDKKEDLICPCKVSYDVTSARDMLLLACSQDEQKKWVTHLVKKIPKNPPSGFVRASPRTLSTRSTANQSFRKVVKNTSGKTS
How it was run: as §1

Plk3 = target: T32, Plk3 (Homo sapiens, UniProt Q9H4B4)
T32 construct: purchased Millipore, Inc. (KinaseProfiler service)
How it was run: as §1

ROCK-II = target: T33, ROCK-II (Homo sapiens, UniProt O75116)
T33 construct: purchased Millipore, Inc. (KinaseProfiler service)
How it was run: as §1

EphB3 = target: T34, EphB3 (Homo sapiens, UniProt P54753)
T34 construct: purchased Millipore, Inc. (KinaseProfiler service)
How it was run: as §1

p38gamma = target: T35, p38gamma (Homo sapiens, UniProt P53778)
T35 construct: purchased Millipore, Inc. (KinaseProfiler service)
How it was run: as §1

Haspin = target: T36, Haspin (Homo sapiens, UniProt Q8TF76)
T36 construct: purchased Millipore, Inc. (KinaseProfiler service)
How it was run: as §1

LKB1 = target: T37, LKB1 (Homo sapiens, UniProt Q15831)
T37 construct: purchased Millipore, Inc. (KinaseProfiler service)
How it was run: as §1

MSSK1 = target: T38, MSSK1 (Homo sapiens, UniProt Q9UPE1)
T38 construct: purchased Millipore, Inc. (KinaseProfiler service)
How it was run: as §1

FAK = target: T39, FAK (Homo sapiens, UniProt Q05397)
T39 construct: purchased Millipore, Inc. (KinaseProfiler service)
How it was run: as §1

FAK2 = target: T40, FAK2 (Homo sapiens, UniProt Q14289)
T40 construct: purchased Millipore, Inc. (KinaseProfiler service)
How it was run: as §1

For COCCCc1cc(Cl)c(Cl)cc1NC(=O)Nc1c(C)c(-c2cnn(C)c2)nn1-c1ccccc1 [Example 15, 1-(4,5-dichloro-2-(3-methoxypropyl)phenyl)-3-(1′,4-dimethyl-1-phenyl-1H,1′H-[3,4′-bipyrazol]-5-yl)urea], the “Avg POC” value (MINK) was 121.5 POC, the “Avg POC” value (GRK6) was 103 POC and the “Avg POC” value (TSSK2) was 114.5 POC. The “Avg POC” value (IR) was 95 POC, the “Avg POC” value (CDK1/cyclinB) was 97 POC and the “Avg POC” value (SGK3) was 132 POC. For the same compound, the “Avg POC” value (Ab12) was 108 POC, the “Avg POC” value (TAK1) was 95 POC and the “Avg POC” value (CDK2/cyclinA) was 112.5 POC. For the same compound, the “Avg POC” value (CK1gamma3) was 112.5 POC, the “Avg POC” value (MAPKAP-K2) was 129.5 POC and the “Avg POC” value (MKNK2) was 106 POC. The “Avg POC” value (HIPK3) was 101 POC, the “Avg POC” value (NLK) was 117 POC and the “Avg POC” value (mTOR) was 102.5 POC. For the same compound, the “Avg POC” value (ULK3) was 92.5 POC, the “Avg POC” value (PKCzeta) was 103 POC and the “Avg POC” value (CK1_y) was 96.5 POC. The “Avg POC” value (p38beta) was 106.5 POC, the “Avg POC” value (Bmx) was 129.5 POC and the “Avg POC” value (IR Activated) was 119.5 POC. For the same compound, the “Avg POC” value (DAPK1) was 121.5 POC, the “Avg POC” value (CDK6/cyclinD3) was 111 POC and the “Avg POC” value (PDGFRbeta) was 134 POC. For the same compound, the “Avg POC” value (ErbB4) was 118.5 POC, the “Avg POC” value (DAPK2) was 104.5 POC and the “Avg POC” value (MAP4K2) was 112.5 POC. The “Avg POC” value (ULK2) was 95 POC, the “Avg POC” value (NEK11) was 75 POC and the “Avg POC” value (EGFR) was 103 POC. The “Avg POC” value (Syk) was 100 POC, the “Avg POC” value (ROCK-I) was 117.5 POC and the “Avg POC” value (Plk3) was 109 POC. The “Avg POC” value (ROCK-II) was 99 POC, the “Avg POC” value (EphB3) was 78.5 POC and the “Avg POC” value (p38gamma) was 108 POC. For the same compound, the “Avg POC” value (Haspin) was 121.5 POC, the “Avg POC” value (LKB1) was 90.5 POC and the “Avg POC” value (MSSK1) was 122 POC. The “Avg POC” value (FAK) was 103.5 POC and the “Avg POC” value (FAK2) was 102.5 POC.
